38 sequences from the OligoGym collection can be followed below.

Series [1] deals with KRAS. The settings on record: ASO, A431, 2 µM.
For series [2], the target named is IRF5. The note with it: ASO.

“And” between values parts separate entries of the source, which are not always exact repeats. Identical values can stand only once. After the bases stand the sugars from the 5' end (letter, count) and the backbone: PS all phosphorothioate, else s phosphorothioate and o phosphodiester by linkage. Methylation of C is not given here. e = 2'-O-(2-methoxyethyl) (MOE); k = constrained ethyl (cEt); d = 2'-deoxy (DNA)

Turning to AAAAAAAAAATTAATG (sugars k3 d10 k3, PS), the target mRNA inhibition in series [1] was 6%.
In the case of AAAAAAAATTAATGTC (sugars k3 d10 k3, PS), in series [1], the target mRNA inhibition is 14%.
In series [2] (KARPAS-229, 4 µM), “GCTTGGTCTTGACCTC (sugars kkkddddddddkekek, PS)” gave a target mRNA inhibition of 0%.
On to “GGAAGTGAGTCTCAAA (sugars kkddddddddddkeke, PS)”, for which the target mRNA inhibition in series [2] (KARPAS-229, 0.44444 µM) was 6%; in series [2] (KARPAS-229, 1.33333 µM), 12%; in series [2] (KARPAS-229, 4 µM) it was 55% and 49%; in series [2] (KARPAS-229, 12 µM) it was 65%.
In turn, GGTCTGGCCCTTTTGG (sugars k3 d10 k3, PS) showed a target mRNA inhibition in series [2] (KARPAS-229, 4 µM) of 16%.
Same read-out and setting: the result for “GGTCTGGCCCTTTTGG (sugars kkkddddddddkekek, PS)” reads 2%; that for “GGTCTTGACCTCCCGC (sugars k3 d9 k3 e1, PS)”, 22%; that for “GGTCTTGACCTCCCGC (sugars kekdddddddddeekk, PS)”, 33%.
The same measure, in the same setting: the result for “GGTCTTGACCTCCCGC (sugars kkkdddddddddkeke, PS)” reads 7%; that for “GGTCTTTGAGGTCTGG (sugars kkdddddddddkdkdk, PS)”, 56%.
Take GGTGAGTAGGACGAGT (sugars k3 d10 k3, PS): the target mRNA inhibition in series [2] (KARPAS-229, 4 µM) came out at 48%.
As for GGTGTATTTCCCTGTC (sugars k3 d10 k3, PS), the target mRNA inhibition in series [2] (KARPAS-229, 0.44444 µM) is 32% and 25%; in series [2] (KARPAS-229, 1.33333 µM), 38% and 56%; in series [2] (KARPAS-229, 12 µM), 69% and 67%.
The sequence “GGTGTATTTCCCTGTC (sugars kkddddddddddkeke, PS)” registered a target mRNA inhibition in series [2] (KARPAS-229, 4 µM) of 21%.
Still for that read-out and setting: the figure for GGTTCTTGGACTCTCA (sugars k2 d11 k3, PS) is 47%.
“GGTTCTTGGACTCTCA (sugars k3 d9 k3 e1, PS)” gave a target mRNA inhibition in series [2] (KARPAS-229, 4 µM) of 0%.
Take GGTTCTTGGACTCTCA (sugars k3 d10 k3, PS): the target mRNA inhibition in series [2] (KARPAS-229, 0.44444 µM) is 52% and 54%; in series [2] (KARPAS-229, 1.33333 µM), 65% and 72%; in series [2] (KARPAS-229, 12 µM), 86% and 82%.
Turning to “GGTTCTTGGACTCTCA (sugars kekdddddddddeekk, PS)”, the target mRNA inhibition is 31% in series [2] (KARPAS-229, 0.44444 µM); 44% in series [2] (KARPAS-229, 1.33333 µM); 60% and 66% in series [2] (KARPAS-229, 4 µM); 81% in series [2] (KARPAS-229, 12 µM).
As for “GGTTCTTGGACTCTCA (sugars kkdddddddddkdkdk, PS)”, the target mRNA inhibition in series [2] (KARPAS-229, 4 µM) came out at 29%.
In the case of “GGTTCTTGGACTCTCA (sugars kkddddddddkekekk, PS)”, the target mRNA inhibition in series [2] (KARPAS-229, 4 µM) amounted to 0%.
On the same count and under the same terms, the result for GTAATAGGAGTGAGAC (sugars k3 d10 k3, PS) reads 11%; that for “GTCTAGTGTCATGGAA (sugars kddddddddddkekek, PS)”, 42%.
The same measure, in the same setting: the figure for “GTCTAGTGTCATGGAA (sugars kdddddddddkekeke, PS)” is 35%.
Still for that read-out and setting: the figure for “GTCTGGCCCTTTTGGA (sugars kkkddddddddkekek, PS)” is 0%; for “GTCTTGACCTCCCGCT (sugars k3 d9 k3 e1, PS)” it is 51%.
For the sequence “GTCTTGACCTCCCGCT (sugars kkddddddddddkeke, PS)”, the target mRNA inhibition in series [2] (KARPAS-229, 0.44444 µM) is 38%; in series [2] (KARPAS-229, 1.33333 µM), 47%; in series [2] (KARPAS-229, 4 µM) it was 65% and 69%; in series [2] (KARPAS-229, 12 µM), 78%.
Sequence “GTCTTTGAGGTCTGGG (sugars kkddddddddkekekk, PS)” had a target mRNA inhibition in series [2] (KARPAS-229, 4 µM) of 34%.
On to “GTGAGTCTCAAACCAG (sugars kkddddddddddkeke, PS)”, for which, in series [2] (KARPAS-229, 4 µM), the target mRNA inhibition amounted to 31%.
The same measure, in the same setting: the figure for “GTGTATTTCCCTGTCT (sugars k2 d9 e3 k2, PS)” is 16%; for GTGTCATGGAATTTTG (sugars k3 d10 k3, PS) it is 58%.
The same measure, in the same setting: the figure for “GTTCTTGGACTCTCAA (sugars k3 d9 k3 e1, PS)” is 37%.
The same measure, in the same setting: the result for “GTTCTTGGACTCTCAA (sugars kddddddddddkekek, PS)” reads 35%; that for “GTTCTTGGACTCTCAA (sugars kdddddddddkekeke, PS)”, 0%; that for “GTTCTTGGACTCTCAA (sugars kkddddddddkekekk, PS)”, 0%.
In series [2] (KARPAS-229, 4 µM), “GTTCTTGGACTCTCAA (sugars kkkddddddddkekek, PS)” registered a target mRNA inhibition of 0%.
For “GTTGAATTTTGTGACT (sugars k3 d9 k3 d1, PS)”, in series [2] (KARPAS-229, 4 µM), the target mRNA inhibition is 0%.
Same read-out and setting: the result for TAATAGGAGTGAGACG (sugars k3 d10 k3, PS) reads 12%; that for “TATCTCCGTCCTGGCT (sugars kddddddddddkekek, PS)”, 0%.
Regarding “TATTTCTGCTCCAGGT (sugars k3 d9 k3 e1, PS)”, the target mRNA inhibition is 46% in series [2] (KARPAS-229, 0.44444 µM); 52% in series [2] (KARPAS-229, 1.33333 µM); 45% and 67% in series [2] (KARPAS-229, 4 µM); 74% in series [2] (KARPAS-229, 12 µM).
